Assay results reported in patent US20090042849A1, “Phosphorylation of 5-lipoxygenase at ser523 and uses thereof” (priority 2006, published 2009).
“Also recorded” adds a separate entry of the source.

Legend:
5LO [1] = assay: immunoblotting of 5LO in cytosolic, membranous and nuclear fractions of myocardial cells; type: in vivo; conditions: rat myocardium
Procedure: Rats received: 1) […] (20 mg/kg) or 6) water alone (control). PIO and ATV were suspended in water and administered by gastric gavage once daily for 3 days; H-89 was dissolved in DMSO (final concentration 5% v/v) and injected intraperitoneally on the third day. Rats in groups 5 and 6 received water by gastric gavage once daily for 3 days. Rats in groups 1, 2 and 6 received intraperitoneal inkection of DMSO 5%. Sixteen hours after the injection, rats were euthanized and the hearts explanted for further analyses. In another experiment, rats received 3-day pretreatment with: 1) […]); or 5) LPS (10 mg/kg). Myocardial samples (0.25 g) were homogenized, mixed with Buffer A Mix [Hepes (pH 7.9) 10 mM, KCl 10 mM, EDTA 10 mM, DTT 100 mM, protease inhibitor cocktail, and IGEPAL 10%, (Sigma, St Lois, Mo.)], homogenized again and incubated for 15 min on ice, and centrifuged at 850×g for 10 min at 4° C. The supernatant was discharged, Buffer A Mix was added again and the samples incubated for an additional 15 min on ice, and centrifuged at 15,000×g for 3 min at 40 C. The supernatant contains the cytosolic fraction was collected. The pellet was resuspended in 150 μl of Buffer B Mix [Hepes (pH 7.9) 20 mM, NaCl 0.4M, EDTA 1 mM, glycerol 10%, protease inhibitor cocktail, and IGEPAL 10%], the tubes were shaked on ice at 200 rpm for 2 h, centrifuged at 15,000×g for 5 min at 4° C., and supernatants were collected as the nuclear fraction. […] The hearts were rapidly explanted, rinsed in cold PBS (pH 7.4), containing 0.16 mg/ml heparin to remove red blood cells and clots, frozen in liquid nitrogen and stored at -70° C. Myocardial samples from the anterior left ventricular wall were homogenized in RIPA lysis buffer (Santa Cruz Biotechnology, Santa Cruz, Calif.) and centrifuged at 14,000 rpm for 15 min at 4° C. The supernatant was collected and the total protein concentration was determined using the Lowry protein assay. […] The protein samples with loading buffer were run in 4-20% Tri-HCl Ready Gel at a 100V for 2 h until the desired molecular weight bands were separated. After electrophoresis, the gel was equilibrated in transfer buffer (25 mM Tris, 193 mM glycine, 0.1% SDS and 10% methanol) and the proteins were transferred to nitrocellulose membrane. The protein signals were quantified by an image-scanning-densitometer and the strength of each protein signal was normalized to the corresponding b-actin stain signal. Data are expressed as a ratio between the protein and the corresponding b-actin signal density.

cPLA2 = assay: immunofluorescence of cPLA2 in adult rat cardiac myocytes; type: cell-based; conditions: PIO 10 μM, ATV 10 μM, H-89 0.1 μM, 12 hours
Procedure: (§1) Cardiac myocytes were isolated from adult Sprague-Dawley rats (250-300 g, male). Animals were heparinized (1,000-2,000 units i.p.) 5 min before being anesthetized with ketamine (100 mg/kg) and xylazine (10 mg/kg), and the hearts were removed and placed in ice-cold heart media solution (in mmol/l: 112 NaCl, 5.4 KCl, 1 MgCl2, 9 NaH2PO4, and 11.1 D-glucose; supplemented with 10 HEPES, 30 taurine, 2 DL-carnitine, and 2 creatine, pH. 7.4). The hearts were perfused retrogradely in a Langendorff apparatus with Ca^2+-free heart media for 5 min at 5 ml/min at 37° C., followed by perfusion with Ca^2+-free heart media containing collagenase II, 210 U/mg (Worthington, Lakewood, N.J.) for 20 min. After perfusion, both ventricles were removed from the heart and minced in collagenase II-containing heart media for 10-15 min. The cell solution was then washed several times to remove collagenase II and reexposed to 1.2 mM Ca2^+ over 25 min to produce Ca2^+-tolerant cardiac myocytes. […]
(§2) Immunofluorescent labeling was performed on paraffin sections (5-μm) of 4% formaldehyde-fixed rat cardiac tissue, as described previously (22). […] All the slides were viewed under an Olympus BX51 microscope [images recorded by a DP70 Digital camera (Olympus Optical Co., Ltd., Tokyo, Japan)] or confocal microscope (Bio-Rad 2100 (Hercules, Calif.).

15ELXA = 15ELXA levels in adult rat cardiac myocytes (ELISA); type: cell-based
5LO [2] = assay: immunofluorescence of 5LO in adult rat cardiomyocyte cultures; type: cell-based; conditions: PIO 10 μM, ATV 10 μM, H-89 0.1 μM, 12 hours
Procedure: as §1, §2

COX2 = assay: immunofluorescence of COX2 in adult rat cardiac myocytes; type: cell-based
Procedure: as §1, §2

[3] = PIO 10 μM, ATV 10 μM, H-89 0.1 μM, 12 hours

## CC(C)c1c(C(=O)Nc2ccccc2)c(-c2ccccc2)c(-c2ccc(F)cc2)n1CCC(O)CC(O)CC(=O)O (stereo not shown) [ATV, 7-[2-(4-fluorophenyl)-5-(1-methylethyl)-3-phenyl-4-(phenylcarbamoyl)-1H-pyrrol-1-yl]-3,5-dihydroxy-heptanoic acid]
5LO [1]
  5LO levels in the cytosolic fraction: small, yet significant increase
  5LO levels in the membranous fraction: no detectable effect

## O=S(=O)(NCCNC/C=C/c1ccc(Br)cc1)c1cccc2cnccc12 [H-89]
cPLA2
  cPLA2 expression: no effect
15ELXA; H-89 0.1 μM with PIO+ATV
  effect on the PIO+ATV augmentation of 15ELXA levels: attenuated
15ELXA; [3]
  levels of 15ELXA: no effect
5LO [2]
  5LO expression and localization in cardiomyocytes: no effect
COX2; H-89 0.1 μM with PIO+ATV
  effect on the increased expression of COX2 by PIO+ATV: did not affect; also recorded: no effect
COX2; [3]
  COX2 expression: no effect
5LO [1]
  5LO levels in the cytosolic fraction: no significant effect
  5LO levels in the membranous fraction: no significant effect
